Source: article PMC6149898, “GPCR Modulation of Thieno[2,3-b]pyridine Anti-Proliferative Agents” (Molecules : A Journal of Synthetic Chemistry and Natural …, 2017)
pEC50, pIC50: −log10 of the molar value.

How the values were obtained:
HTR2A = HTR2A (Homo sapiens, UniProt P28223); assay: gpcrMAX PathHunter beta-arrestin
MC5R = MC5R (Homo sapiens, UniProt P33032); assay: gpcrMAX PathHunter beta-arrestin
CCKBR = CCKBR (Homo sapiens, UniProt P32239); assay: gpcrMAX PathHunter beta-arrestin
GCGR = GCGR (Homo sapiens, UniProt P47871); assay: gpcrMAX PathHunter beta-arrestin
OPRL1 = OPRL1 (Homo sapiens, UniProt P41146); assay: gpcrMAX PathHunter beta-arrestin
SSTR2 = SSTR2 (Homo sapiens, UniProt P30874); assay: gpcrMAX PathHunter beta-arrestin
OV:OVCAR-3 = test system: OV:OVCAR-3; set-up: method as in earlier work; settings: NCI-60 panel; ref [4],[5],[6],[7]; cited from earlier work
CHRM3 = CHRM3 (Homo sapiens, UniProt P20309); assay: gpcrMAX PathHunter beta-arrestin
MCHR2 = MCHR2 (Homo sapiens, UniProt Q969V1); assay: gpcrMAX PathHunter beta-arrestin
MC3R = MC3R (Homo sapiens, UniProt P41968); assay: gpcrMAX PathHunter beta-arrestin
CO:HCT-116 = test system: CO:HCT-116; set-up: method as in earlier work; settings: NCI-60 panel; ref [4],[5],[6],[7]; cited from earlier work
OPRD1 = OPRD1 (Homo sapiens, UniProt P41143); assay: gpcrMAX PathHunter beta-arrestin
DRD4 = DRD4 (Homo sapiens, UniProt P21917); assay: gpcrMAX PathHunter beta-arrestin
BRS3 = BRS3 (Homo sapiens, UniProt P32247); assay: gpcrMAX PathHunter beta-arrestin
LC:NCI-H522 = test system: LC:NCI-H522; set-up: method as in earlier work; settings: NCI-60 panel; ref [4],[5],[6],[7]; cited from earlier work
CALCRL-RAMP3 = biological target: T1, CALCRL-RAMP3 (Homo sapiens, UniProt O60896+Q16602); assay: gpcrMAX PathHunter beta-arrestin; format: cell-based
T1 construct: ProLink (beta-galactosidase enzyme-donor fragment)
Protocol: (§1) complementation (EFC) technology. […]
(§2) challenge at the EC80 concentration. […]
(§3) minutes. Vehicle concentration was 1%. […]
(§4) room temperature for 90 or 180 minutes. […]
(§5) instrument for chemiluminescent signal detection.
(§6) 11 GPCR MAX dose response, Agonist and Antagonist
(§7) Targets (60 Data points each): i) CALCRL‐RAMP3‐Antagonist
(§8) 180 minutes. Vehicle concentration was 1%. […]
(§9) hours. Vehicle concentration was 1%. Extended incubation is typically required to observe an inverse agonist response in the PathHunter arrestin assay.
(§10) Positive Allosteric Modulation Format
(§11) 1. For allosteric determination, cells were pre-incubated with sample followed by agonist induction at the EC20 concentration. […]
(§12) temperature for 90 or 180 minutes.
(§13) Antagonist/Negative Allosteric Modulation Format
(§14) 1. Compound activity was analyzed using CBIS data analysis suite (ChemInnovation, CA).

NPSR1B = biological target: T2, NPSR1B (Homo sapiens, UniProt Q6W5P4); assay: gpcrMAX PathHunter beta-arrestin; format: cell-based
T2 construct: ProLink (beta-galactosidase enzyme-donor fragment)
Protocol: as §1, §2, §3, §4, §5, §6, §7, §8, §9, §10, §11, §12, §13, §14

GPR35 = biological target: T3, GPR35 (Homo sapiens, UniProt Q9HC97); assay: gpcrMAX PathHunter beta-arrestin; format: cell-based
T3 construct: ProLink (beta-galactosidase enzyme-donor fragment)
Protocol: as §1, §2, §3, §4, §5, §6, §7, §8, §9, §10, §11, §12, §13, §14

PRLHR = biological target: T4, PRLHR (Homo sapiens, UniProt P49683); assay: gpcrMAX PathHunter beta-arrestin; format: cell-based
T4 construct: ProLink (beta-galactosidase enzyme-donor fragment)
Protocol: as §1, §2, §3, §4, §5, §6, §7, §8, §9, §10, §11, §12, §13, §14

CXCR4 = biological target: T5, CXCR4 (Homo sapiens, UniProt P61073); assay: gpcrMAX PathHunter beta-arrestin; format: cell-based
T5 construct: ProLink (beta-galactosidase enzyme-donor fragment)
Protocol: as §1, §2, §3, §4, §5, §6, §7, §8, §9, §10, §11, §12, §13, §14

HTR1B = biological target: T6, HTR1B (Homo sapiens, UniProt P28222); assay: gpcrMAX PathHunter beta-arrestin; format: cell-based
T6 construct: ProLink (beta-galactosidase enzyme-donor fragment)
Protocol: as §1, §2, §3, §4, §5, §6, §7, §8, §9, §10, §11, §12, §13, §14

CCKAR = CCKAR (Homo sapiens, UniProt P32238); assay: gpcrMAX PathHunter beta-arrestin
NPY2R = NPY2R (Homo sapiens, UniProt P49146); assay: gpcrMAX PathHunter beta-arrestin
CALCR-RAMP2 = CALCR-RAMP2 (Homo sapiens, UniProt O60895+P30988); assay: gpcrMAX PathHunter beta-arrestin
BR:HS 578T = test system: BR:HS 578T; set-up: method as in earlier work; settings: NCI-60 panel; ref [4],[5],[6],[7]; cited from earlier work
TRHR = TRHR (Homo sapiens, UniProt P34981); assay: gpcrMAX PathHunter beta-arrestin
CNS:SNB-75 = test system: CNS:SNB-75; set-up: method as in earlier work; settings: NCI-60 panel; ref [4],[5],[6],[7]; cited from earlier work
CNR1 = CNR1 (Homo sapiens, UniProt P21554); assay: gpcrMAX PathHunter beta-arrestin
GPR109B = GPR109B (Homo sapiens, UniProt P49019); assay: gpcrMAX PathHunter beta-arrestin
RE:A498 = test system: RE:A498; set-up: method as in earlier work; settings: NCI-60 panel; ref [4],[5],[6],[7]; cited from earlier work
CO:SW-620 = test system: CO:SW-620; set-up: method as in earlier work; settings: NCI-60 panel; ref [4],[5],[6],[7]; cited from earlier work
MCHR1 = MCHR1 (Homo sapiens, UniProt Q99705); assay: gpcrMAX PathHunter beta-arrestin
ADRA2B = ADRA2B (Homo sapiens, UniProt P18089); assay: gpcrMAX PathHunter beta-arrestin
FPRL1 = FPRL1 (Homo sapiens, UniProt P25090); assay: gpcrMAX PathHunter beta-arrestin
PTHR2 = PTHR2 (Homo sapiens, UniProt P49190); assay: gpcrMAX PathHunter beta-arrestin
[1] = antagonist format, dose response

T4 sequence (P49683 whole entry, the tested form may be a part): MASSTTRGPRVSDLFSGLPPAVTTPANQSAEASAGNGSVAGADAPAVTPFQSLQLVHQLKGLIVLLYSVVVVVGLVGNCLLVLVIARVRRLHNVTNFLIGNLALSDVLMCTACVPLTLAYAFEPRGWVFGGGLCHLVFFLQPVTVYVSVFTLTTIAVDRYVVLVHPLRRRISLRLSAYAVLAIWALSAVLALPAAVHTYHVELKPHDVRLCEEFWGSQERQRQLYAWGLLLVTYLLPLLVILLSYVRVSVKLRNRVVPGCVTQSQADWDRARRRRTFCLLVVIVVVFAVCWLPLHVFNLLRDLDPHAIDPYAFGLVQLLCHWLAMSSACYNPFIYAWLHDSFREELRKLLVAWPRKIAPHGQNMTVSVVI
T1 sequence (Q16602 23-461): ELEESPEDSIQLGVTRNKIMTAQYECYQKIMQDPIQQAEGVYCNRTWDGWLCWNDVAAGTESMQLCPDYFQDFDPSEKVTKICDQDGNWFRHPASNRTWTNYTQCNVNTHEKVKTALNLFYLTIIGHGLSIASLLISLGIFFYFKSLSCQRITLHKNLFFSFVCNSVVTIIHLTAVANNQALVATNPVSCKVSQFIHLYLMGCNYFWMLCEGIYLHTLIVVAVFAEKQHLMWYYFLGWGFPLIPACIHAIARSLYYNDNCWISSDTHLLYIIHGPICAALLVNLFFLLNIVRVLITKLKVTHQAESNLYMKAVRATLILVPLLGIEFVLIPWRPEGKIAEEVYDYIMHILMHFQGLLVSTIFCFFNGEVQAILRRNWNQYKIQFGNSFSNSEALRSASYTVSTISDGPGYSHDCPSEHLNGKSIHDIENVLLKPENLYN
T1 sequence (O60896 24-148 partner): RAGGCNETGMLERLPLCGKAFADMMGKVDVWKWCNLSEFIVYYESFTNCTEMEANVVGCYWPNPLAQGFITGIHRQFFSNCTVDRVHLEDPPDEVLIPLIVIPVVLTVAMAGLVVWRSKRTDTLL
T2 sequence (Q6W5P4 1-377 isoform Q6W5P4-4): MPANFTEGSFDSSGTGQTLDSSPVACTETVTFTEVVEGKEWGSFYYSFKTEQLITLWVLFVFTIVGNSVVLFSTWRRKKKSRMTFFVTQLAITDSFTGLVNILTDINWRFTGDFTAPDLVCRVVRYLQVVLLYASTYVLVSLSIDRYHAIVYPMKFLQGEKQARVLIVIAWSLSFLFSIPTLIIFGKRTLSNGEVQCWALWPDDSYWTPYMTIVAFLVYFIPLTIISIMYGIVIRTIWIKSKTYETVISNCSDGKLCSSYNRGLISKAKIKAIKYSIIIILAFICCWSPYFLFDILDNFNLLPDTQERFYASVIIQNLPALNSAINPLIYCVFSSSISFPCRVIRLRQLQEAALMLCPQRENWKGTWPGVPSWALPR
T3 sequence (Q9HC97 whole entry, the tested form may be a part): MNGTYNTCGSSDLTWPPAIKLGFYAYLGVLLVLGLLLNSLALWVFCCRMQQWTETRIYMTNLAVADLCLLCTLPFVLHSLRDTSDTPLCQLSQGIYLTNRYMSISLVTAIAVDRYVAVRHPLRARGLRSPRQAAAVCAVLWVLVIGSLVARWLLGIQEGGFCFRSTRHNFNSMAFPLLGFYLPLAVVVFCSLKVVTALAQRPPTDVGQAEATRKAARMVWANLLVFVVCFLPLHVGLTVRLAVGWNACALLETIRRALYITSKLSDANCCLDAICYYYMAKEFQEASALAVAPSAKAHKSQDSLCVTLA
T6 sequence (P28222 whole entry, the tested form may be a part): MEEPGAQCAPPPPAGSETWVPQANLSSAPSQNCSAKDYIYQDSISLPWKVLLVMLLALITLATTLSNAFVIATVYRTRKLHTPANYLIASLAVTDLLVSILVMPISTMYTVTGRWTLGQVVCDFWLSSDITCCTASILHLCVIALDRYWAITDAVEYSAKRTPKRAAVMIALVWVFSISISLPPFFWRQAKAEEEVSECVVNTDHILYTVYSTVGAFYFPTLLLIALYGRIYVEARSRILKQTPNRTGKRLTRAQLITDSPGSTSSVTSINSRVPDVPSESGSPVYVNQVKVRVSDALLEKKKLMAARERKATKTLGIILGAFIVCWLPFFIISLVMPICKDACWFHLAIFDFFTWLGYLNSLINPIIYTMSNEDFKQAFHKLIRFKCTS
T5 sequence (P61073 whole entry, the tested form may be a part): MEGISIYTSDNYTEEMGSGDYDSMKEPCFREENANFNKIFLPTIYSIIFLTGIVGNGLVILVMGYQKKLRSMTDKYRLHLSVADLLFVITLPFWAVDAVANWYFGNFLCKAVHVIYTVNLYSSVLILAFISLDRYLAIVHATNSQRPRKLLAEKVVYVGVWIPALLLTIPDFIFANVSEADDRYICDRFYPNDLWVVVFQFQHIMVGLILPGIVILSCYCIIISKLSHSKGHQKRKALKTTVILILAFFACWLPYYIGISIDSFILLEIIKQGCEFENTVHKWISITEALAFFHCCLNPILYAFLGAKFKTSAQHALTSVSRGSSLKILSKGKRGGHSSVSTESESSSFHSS
Chain of PTHR2 (P49190 25-550): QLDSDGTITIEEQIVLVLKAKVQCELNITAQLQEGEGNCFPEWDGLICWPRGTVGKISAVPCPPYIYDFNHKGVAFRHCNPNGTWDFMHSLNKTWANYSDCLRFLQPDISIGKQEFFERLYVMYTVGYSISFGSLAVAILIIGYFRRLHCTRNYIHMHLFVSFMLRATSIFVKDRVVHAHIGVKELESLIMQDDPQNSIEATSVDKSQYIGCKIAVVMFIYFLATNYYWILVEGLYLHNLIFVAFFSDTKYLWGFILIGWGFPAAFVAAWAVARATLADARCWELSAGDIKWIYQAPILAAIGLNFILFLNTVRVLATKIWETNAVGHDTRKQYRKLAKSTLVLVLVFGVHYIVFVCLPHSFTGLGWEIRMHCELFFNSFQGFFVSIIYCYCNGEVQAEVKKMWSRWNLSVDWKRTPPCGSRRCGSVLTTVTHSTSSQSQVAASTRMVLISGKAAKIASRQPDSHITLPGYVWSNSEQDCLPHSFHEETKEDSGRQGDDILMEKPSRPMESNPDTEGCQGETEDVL
Chain of CCKBR (P32239 whole entry): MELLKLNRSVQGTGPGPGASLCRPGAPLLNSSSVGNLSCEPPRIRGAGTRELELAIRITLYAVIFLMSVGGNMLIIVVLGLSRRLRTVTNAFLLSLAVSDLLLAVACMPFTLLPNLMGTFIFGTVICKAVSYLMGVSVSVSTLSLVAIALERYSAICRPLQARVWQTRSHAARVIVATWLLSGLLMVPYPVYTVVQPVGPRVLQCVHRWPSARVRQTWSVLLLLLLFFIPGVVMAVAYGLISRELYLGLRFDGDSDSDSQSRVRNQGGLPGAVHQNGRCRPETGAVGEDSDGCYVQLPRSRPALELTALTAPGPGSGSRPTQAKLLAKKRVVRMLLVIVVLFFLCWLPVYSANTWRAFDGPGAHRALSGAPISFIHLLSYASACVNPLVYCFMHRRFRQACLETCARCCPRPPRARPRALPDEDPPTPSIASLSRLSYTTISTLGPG
Chain of BRS3 (P32247 whole entry): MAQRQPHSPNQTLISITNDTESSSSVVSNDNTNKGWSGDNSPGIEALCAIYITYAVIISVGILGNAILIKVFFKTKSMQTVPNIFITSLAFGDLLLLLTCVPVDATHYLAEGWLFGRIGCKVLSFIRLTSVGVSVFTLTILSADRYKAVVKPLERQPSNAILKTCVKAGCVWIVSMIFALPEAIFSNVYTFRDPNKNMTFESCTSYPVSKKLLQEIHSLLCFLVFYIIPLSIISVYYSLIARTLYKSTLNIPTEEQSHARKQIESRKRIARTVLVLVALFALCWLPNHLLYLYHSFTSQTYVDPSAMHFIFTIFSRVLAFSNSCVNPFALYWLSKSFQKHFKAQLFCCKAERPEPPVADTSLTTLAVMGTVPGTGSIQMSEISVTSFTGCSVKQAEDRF
Chain of CNR1 (P21554 whole entry): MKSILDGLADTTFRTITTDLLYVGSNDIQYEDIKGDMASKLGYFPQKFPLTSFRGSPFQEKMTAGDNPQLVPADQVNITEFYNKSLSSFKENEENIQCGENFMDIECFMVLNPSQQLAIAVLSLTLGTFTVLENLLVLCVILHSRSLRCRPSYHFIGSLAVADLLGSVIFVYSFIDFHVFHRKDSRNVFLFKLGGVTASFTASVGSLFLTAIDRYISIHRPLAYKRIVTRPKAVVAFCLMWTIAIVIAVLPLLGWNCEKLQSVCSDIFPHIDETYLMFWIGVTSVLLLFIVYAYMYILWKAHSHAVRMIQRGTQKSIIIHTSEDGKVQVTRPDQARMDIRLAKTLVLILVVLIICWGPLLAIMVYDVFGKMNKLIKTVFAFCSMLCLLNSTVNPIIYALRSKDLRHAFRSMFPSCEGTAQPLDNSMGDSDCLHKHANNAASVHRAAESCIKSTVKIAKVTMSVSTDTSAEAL
Chain of CALCR-RAMP2 (P30988 25-474): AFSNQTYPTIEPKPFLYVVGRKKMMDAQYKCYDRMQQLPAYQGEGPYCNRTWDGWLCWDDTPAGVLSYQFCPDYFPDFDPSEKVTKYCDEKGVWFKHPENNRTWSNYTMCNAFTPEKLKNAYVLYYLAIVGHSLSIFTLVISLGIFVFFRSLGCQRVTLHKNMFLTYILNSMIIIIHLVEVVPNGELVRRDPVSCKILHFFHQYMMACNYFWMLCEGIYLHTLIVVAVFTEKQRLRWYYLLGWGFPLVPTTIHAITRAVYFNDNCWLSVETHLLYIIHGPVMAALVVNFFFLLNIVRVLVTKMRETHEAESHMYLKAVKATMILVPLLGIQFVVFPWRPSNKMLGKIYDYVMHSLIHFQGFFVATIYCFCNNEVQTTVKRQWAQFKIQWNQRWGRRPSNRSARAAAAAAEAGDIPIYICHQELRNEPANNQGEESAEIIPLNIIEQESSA
Chain of CALCR-RAMP2 (O60895 43-175 partner): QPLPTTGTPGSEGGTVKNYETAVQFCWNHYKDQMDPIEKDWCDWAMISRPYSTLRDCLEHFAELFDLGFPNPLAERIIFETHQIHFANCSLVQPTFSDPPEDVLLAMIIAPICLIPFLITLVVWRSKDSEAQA

Question: With `Cc1c(Cl)cccc1NC(=O)c1sc2nc3c(cc2c1N)C(=O)CCC3` [Compound 1] as the compound, how does the inhibition at 10 µM (HTR2A) read?
Answer: -1%

Question: And the inhibition at 10 µM (MC5R)?
Answer: 20%

Question: And the inhibition at 10 µM (CCKBR)?
Answer: 12%

Question: And the inhibition at 10 µM (GCGR)?
Answer: 12%

Question: What about the inhibition at 10 µM (OPRL1) of the same compound?
Answer: -7%

Question: And the inhibition at 10 µM (SSTR2)?
Answer: 9%

Question: And the GI50 (OV:OVCAR-3)?
Answer: 48.9 nM

Question: And the inhibition at 10 µM (CHRM3)?
Answer: 14%

Question: What about the inhibition at 10 µM (MCHR2) of the same compound?
Answer: -7%

Question: What about the inhibition at 10 µM (MC3R) of the same compound?
Answer: 2%

Question: What about the GI50 (CO:HCT-116) of the same compound?
Answer: 66.8 nM

Question: And the inhibition at 10 µM (OPRD1)?
Answer: -26%

Question: And the inhibition at 10 µM (DRD4)?
Answer: -7%

Question: What about the inhibition at 10 µM (BRS3) of the same compound?
Answer: 17%

Question: What about the GI50 (LC:NCI-H522) of the same compound?
Answer: 22.9 nM

Question: And the pIC50 (CALCRL-RAMP3; [1])?
Answer: 4.92

Question: And the inhibition at 10 µM (CALCRL-RAMP3; antagonist mode, 10 µM)?
Answer: 63%

Question: What about the pIC50 (NPSR1B; [1]) of the same compound?
Answer: 6.00

Question: What about the inhibition at 10 µM (NPSR1B; antagonist mode, 10 µM) of the same compound?
Answer: 59%

Question: What about the pEC50 (GPR35; agonist format, dose response) of the same compound?
Answer: 5.12

Question: And the inhibition at 10 µM (GPR35; antagonist mode, 10 µM)?
Answer: -12%

Question: What about the pIC50 (PRLHR; [1]) of the same compound?
Answer: 5.03

Question: What about the inhibition at 10 µM (PRLHR; antagonist mode, 10 µM) of the same compound?
Answer: 44%

Question: And the pIC50 (CXCR4; [1])?
Answer: 5.16

Question: What about the inhibition at 10 µM (CXCR4; antagonist mode, 10 µM) of the same compound?
Answer: 39%

Question: What about the pIC50 (HTR1B; [1]) of the same compound?
Answer: < 4.30

Question: And the inhibition at 10 µM (HTR1B; antagonist mode, 10 µM)?
Answer: 42%

Question: What about the inhibition at 10 µM (CCKAR) of the same compound?
Answer: 6%

Question: What about the inhibition at 10 µM (NPY2R) of the same compound?
Answer: -9%

Question: And the inhibition at 10 µM (CALCR-RAMP2)?
Answer: 0%

Question: What about the GI50 (BR:HS 578T) of the same compound?
Answer: 48.2 nM

Question: And the inhibition at 10 µM (TRHR)?
Answer: 13%

Question: And the GI50 (CNS:SNB-75)?
Answer: 40.3 nM

Question: And the inhibition at 10 µM (CNR1)?
Answer: 23%

Question: What about the inhibition at 10 µM (GPR109B) of the same compound?
Answer: 7%

Question: And the GI50 (RE:A498)?
Answer: 23.2 nM

Question: What about the GI50 (CO:SW-620) of the same compound?
Answer: 48.6 nM

Question: And the inhibition at 10 µM (MCHR1)?
Answer: -77%

Question: What about the inhibition at 10 µM (ADRA2B) of the same compound?
Answer: -9%

Question: What about the inhibition at 10 µM (FPRL1) of the same compound?
Answer: 11%

Question: And the inhibition at 10 µM (PTHR2)?
Answer: 7%
